The target of the test is human PD-L1 / Human PD-1 (Homo sapiens (Human), UniProt Q9NZQ7). As to the kind of experiment: Enzyme-Linked Immunosorbent Assay (ELISA), PD-1/PD-L1 binding. As to conditions: plate-coated human PD-L1, biotinylated human PD-1, read-out: ELISA IC50. The gist of the method:
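Human PD-L1 coated at 1 μg/mL overnight at 4° C; samples diluted 1:5 and incubated with human PD-1 and biotin (0.3 μg/mL) for 1 h at 37° C. Bound PD-1 detected with streptavidin-HRP and TMB (20 min, 37° C), acid-stopped, absorbance at 450 nm.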

Read-outs that look alike come from different tables or passages of the source.

As usually defined, the IC50 is the concentration at which inhibition is half-maximal.

human PD-L1 / Human PD-1, sequence (Q9NZQ7 19-239): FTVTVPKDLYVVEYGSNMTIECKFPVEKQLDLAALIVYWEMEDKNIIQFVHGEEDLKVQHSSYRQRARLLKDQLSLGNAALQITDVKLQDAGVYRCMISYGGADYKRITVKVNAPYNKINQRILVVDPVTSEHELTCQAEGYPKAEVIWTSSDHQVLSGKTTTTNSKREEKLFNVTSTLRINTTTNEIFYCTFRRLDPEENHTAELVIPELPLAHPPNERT

Turning to `CC(Cc1ccccn1)NCc1cc(Cl)c(O[C@H]2CCc3c(-c4ccccc4F)cccc32)cc1OCc1cncc(C#N)c1` (some centres unmarked) [Example 3.052], the IC50 (Table 3) lay within 100 to 500 nM. `COc1cccc(-c2cccc3c2CCC3CCOc2cc(OCc3cncc(C#N)c3)c(CN3CCC(O)CC3)cc2Cl)c1F` (centres unmarked) [Example 2.087]: the half-maximal inhibitory concentration (IC50) (Table 2) was 500 to 20000 nM. Same read-out and setting: under `N#Cc1cncc(COc2cc(OC3CCc4c(-c5ccccc5)cccc43)c(Cl)cc2CN[C@@H](CO)C(=O)O)c1` (some centres unmarked) [Example 1.001] stands less than 100 nM. Regarding `N#Cc1cncc(COc2cc(O[C@H]3CCc4c(-c5ccccc5F)cccc43)c(Cl)cc2CN[C@@H](CO)C(=O)O)c1` [Example 3.024], the half-inhibitory concentration (IC50) (Table 3) is less than 100 nM. `COc1ccc(F)c(-c2cccc3c2CC[C@@H]3Oc2cc(OCc3cncc(C#N)c3)c(CN3CC(O)C3)cc2Cl)c1` [Example 2.077]: the IC50 (Table 2) fell in the range of 100 to 500 nM.

Consider `O=C(O)[C@H](CO)NCc1cc(Cl)c(OC2CCc3c(-c4ccccc4)cccc32)cc1OCc1cccnc1` (some centres unmarked) [Example 1.011], for which the IC50 (Table 2) fell in the range of 500 to 20000 nM. Same read-out and setting: the result for `COC(=O)c1cccc(COc2cc(O[C@H]3CCc4c(-c5ccccc5F)cccc43)c(Cl)cc2CN2CCC(O)CC2)c1` [Example 2.089] reads 500 to 20000 nM. With `N#Cc1cncc(COc2cc(O[C@H]3CCc4c(-c5ccccc5F)cccc43)c(Cl)cc2CN[C@@H]2CCOC[C@H]2O)c1` [Example 3.037], where the note is “Table 3”, the IC50 was less than 100 nM. In the case of `COc1ccc(F)c(-c2cccc3c2CC[C@@H]3Oc2cc(OCc3cncc(C#N)c3)c(CN3CCC(O)CC3)cc2Cl)c1` [Example 2.079], the half-maximal inhibitory concentration (IC50) (Table 2) was in the range of 100 to 500 nM.

On to `COc1cc(O[C@H]2CCc3c(-c4ccc5c(c4)OCCO5)cccc32)c(Cl)cc1CN[C@@H](CO)C(=O)O` [Example 2.039], for which the half-inhibitory concentration (IC50) (Table 2) was less than 100 nM.

On to `CC(C)c1nccn1CCCNCc1cc(Cl)c(O[C@H]2CCc3c(-c4ccccc4F)cccc32)cc1OCc1cncc(C#N)c1` [Example 3.090], for which, under “Table 3”, the half-inhibitory concentration (IC50) was 100 to 500 nM. On to `O=C(O)[C@H](CO)NCc1cc(Cl)c(O[C@H]2CCc3c(-c4ccccc4F)cccc32)cc1OCC1CC1` [Example 2.038], for which the IC50 (Table 2) lay within 100 to 500 nM. As for `N#Cc1cncc(COc2cc(O[C@H]3CCc4c(-c5ccccc5F)cccc43)c(Cl)cc2CN[C@@H](CO)C(=O)O)c1` [Example 2.004], for the setting “Table 2”, the half-inhibitory concentration (IC50) was less than 100 nM. Regarding `CC(C)[C@@H](NCc1cc(Cl)c(O[C@H]2CCc3c(-c4ccccc4F)cccc32)cc1OCc1cncc(C#N)c1)C(=O)O` [Example 3.099], the IC50 (Table 3) lay in the range of 100 to 500 nM. For the compound `N#Cc1cncc(COc2cc(O[C@H]3CCc4c(-c5ccccc5F)cccc43)c(Cl)cc2CN[C@@H]2COC[C@H]2O)c1` [Example 3.039], the IC50 (Table 3) was less than 100 nM.

`C[C@@H](O)[C@H](NCc1cc(Cl)c(O[C@@H]2CCc3c(-c4ccccc4F)cccc32)cc1OCc1cncc(C#N)c1)C(=O)O` [Example 2.138]: the IC50 (Table 2) was less than 100 nM.

Regarding `N#Cc1cncc(COc2cc(O[C@H]3CCc4c(-c5ccc6c(c5)OC(F)(F)O6)cccc43)c(Cl)cc2CN[C@@H](CO)C(=O)O)c1` [Example 3.107], the half-maximal inhibitory concentration (IC50) (Table 3) fell in the range of 500 to 20000 nM. For the compound `COc1cccc(-c2cccc3c2CC[C@@H]3Oc2cc(OCc3cncc(C#N)c3)c(CN3CC(O)C3)cc2Cl)c1Cl` [Example 2.072], the IC50 (Table 2) lay within 100 to 500 nM. Same read-out and setting: under `CC(C)(CNCc1cc(Cl)c(O[C@H]2CCc3c(-c4ccccc4)cccc32)cc1OCc1cncc(C#N)c1)C(=O)O` [Example 1.013] stands 500 to 20000 nM. Regarding `N#Cc1cncc(COc2cc(O[C@H]3CCc4c(-c5ccc6c(c5F)OCCO6)cccc43)c(Cl)cc2CN[C@@H]2CCC[C@H]2O)c1` [Example 3.033], the IC50 (Table 3) is less than 100 nM.

Consider `N#Cc1cncc(COc2cc(O[C@H]3CCc4c(-c5ccc(F)cc5)cccc43)c(Cl)cc2CN[C@@H](CO)C(=O)O)c1` [Example 2.008], for which, for the setting “Table 2”, the IC50 was 100 to 500 nM. In the case of `N#Cc1cncc(COc2cc(O[C@H]3CCc4c(-c5ccccc5F)cccc43)c(Cl)cc2CNCc2nc(=O)o[nH]2)c1` [Example 2.150], the IC50 (Table 2) fell in the range of 100 to 500 nM. Turning to `CC(NCc1cc(Cl)c(O[C@H]2CCc3c(-c4ccccc4F)cccc32)cc1OCc1cncc(C#N)c1)C(=O)c1ccc(O)c(O)c1` (some centres unmarked) [Example 3.076], where the note is “Table 3”, the IC50 lay within 100 to 500 nM.
